Data on one compound can be found in ChEMBL document CHEMBL1212695, “An allosteric potentiator of M4 mAChR modulates hippocampal synaptic transmission” (Nat Chem Biol, 2008).

Active and inactive are the calls of the source. The calls are words filed in the database; no cut-off is given here.

Assay [1] addresses T1, Muscarinic acetylcholine receptor M5 (Rattus norvegicus) (UniProt P08911).
T1 sequence (whole entry): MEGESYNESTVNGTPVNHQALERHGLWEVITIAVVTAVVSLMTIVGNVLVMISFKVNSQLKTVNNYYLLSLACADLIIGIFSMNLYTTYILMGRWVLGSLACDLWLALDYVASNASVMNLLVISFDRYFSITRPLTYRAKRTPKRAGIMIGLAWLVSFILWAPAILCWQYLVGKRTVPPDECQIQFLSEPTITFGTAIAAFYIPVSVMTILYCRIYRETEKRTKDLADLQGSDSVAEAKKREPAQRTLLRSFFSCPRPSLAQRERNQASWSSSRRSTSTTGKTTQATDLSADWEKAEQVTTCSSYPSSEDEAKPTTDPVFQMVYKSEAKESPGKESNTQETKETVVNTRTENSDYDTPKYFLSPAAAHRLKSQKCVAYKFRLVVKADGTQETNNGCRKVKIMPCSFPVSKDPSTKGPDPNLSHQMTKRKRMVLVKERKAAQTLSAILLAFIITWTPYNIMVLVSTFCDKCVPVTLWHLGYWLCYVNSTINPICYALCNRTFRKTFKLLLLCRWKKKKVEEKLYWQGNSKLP
In words: Agonist activity at rat recombinant muscarinic M5 receptor expressed in CHO cells assessed as induction of calcium mobilization at 10 uM after 1 hr by fluorescence assay. In kind it is functional, cell-based.

The target in assay [2] is Muscarinic acetylcholine receptor M3 (Rattus norvegicus) (UniProt P08483). In words: Displacement of [3H]NMS from rat recombinant muscarinic M3 receptor expressed in CHO cells after 2 hrs by microplate scintillation counting. Type of assay: cell-based. In general terms: In a radioligand displacement assay an active substance lowers the binding of a labelled ligand.
Assay [3] has as its target T2, Muscarinic acetylcholine receptor M1 (Rattus norvegicus) (UniProt P08482).
T2 sequence (whole entry): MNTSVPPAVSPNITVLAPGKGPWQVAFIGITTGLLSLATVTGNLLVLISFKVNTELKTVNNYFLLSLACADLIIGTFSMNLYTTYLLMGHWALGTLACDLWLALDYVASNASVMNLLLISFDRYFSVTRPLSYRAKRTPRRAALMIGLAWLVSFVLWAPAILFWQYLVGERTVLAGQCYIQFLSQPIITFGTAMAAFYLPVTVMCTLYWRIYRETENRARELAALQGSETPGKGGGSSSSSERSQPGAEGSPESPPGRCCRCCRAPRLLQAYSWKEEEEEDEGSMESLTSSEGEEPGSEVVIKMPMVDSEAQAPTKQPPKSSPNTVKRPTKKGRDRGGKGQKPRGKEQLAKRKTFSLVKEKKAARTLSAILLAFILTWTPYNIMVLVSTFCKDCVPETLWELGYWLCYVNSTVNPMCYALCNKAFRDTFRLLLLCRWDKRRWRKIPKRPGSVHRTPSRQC
The assay is described as follows: Allosteric activation of rat recombinant muscarinic M1 receptor expressed in CHO cells assessed as potentiation of acetylcholine-induced calcium mobilization at 10 uM after 1 hr by fluorescence assay. In kind it is functional, cell-based. In general terms: Calcium assays in cells follow changes in intracellular calcium, usually with a dye or a luminescent sensor.

The target of assay [4] is T3, Muscarinic acetylcholine receptor M4 (Rattus norvegicus) (UniProt P08485).
T3 sequence (whole entry): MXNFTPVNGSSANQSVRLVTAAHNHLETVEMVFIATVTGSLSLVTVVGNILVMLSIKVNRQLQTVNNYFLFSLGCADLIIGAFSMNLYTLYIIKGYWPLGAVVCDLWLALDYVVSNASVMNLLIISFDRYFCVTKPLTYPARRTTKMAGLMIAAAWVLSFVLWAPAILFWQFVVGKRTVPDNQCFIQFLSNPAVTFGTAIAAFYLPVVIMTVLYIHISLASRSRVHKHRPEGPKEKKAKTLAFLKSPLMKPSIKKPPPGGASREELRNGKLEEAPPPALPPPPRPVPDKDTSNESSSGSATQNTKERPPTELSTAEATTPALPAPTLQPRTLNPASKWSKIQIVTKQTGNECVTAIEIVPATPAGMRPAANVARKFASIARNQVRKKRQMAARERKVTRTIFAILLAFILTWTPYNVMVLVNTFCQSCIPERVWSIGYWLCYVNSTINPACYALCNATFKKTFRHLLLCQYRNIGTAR
The assay is described as follows: Agonist activity at muscarinic M4 receptor in Sprague-Dawley rat hippocampal CA1 pyramidal neuron assessed as increase in carbachol-induced reduction in excitatory postsynaptic current at 5 uM by whole-cell electrophysiology relative to control. Type of assay: functional, tissue-based. On the set-up: scale not given: the % may be the effect or the level left. To be noted: Hippocampus.

For assay [5], the system named is CHO. The assay is described as follows: Allosteric activation at P2Y1 receptor in CHO cells assessed as potentiation of acetylcholine-induced calcium mobilization at 10 uM after 1 hr by fluorescence assay. Conditions: Cricetulus griseus. Type of assay: cell-based.
In assay [6] the test system is CHO. The assay is described as follows: Agonist activity at P2Y1 receptor in CHO cells assessed as induction of calcium mobilization at 10 uM after 1 hr by fluorescence assay. Type of assay: functional, cell-based. Conditions: Cricetulus griseus.
Assay [7] concerns the target T4, Muscarinic acetylcholine receptor M4 (Mus musculus) (UniProt P32211).
T4 sequence (whole entry): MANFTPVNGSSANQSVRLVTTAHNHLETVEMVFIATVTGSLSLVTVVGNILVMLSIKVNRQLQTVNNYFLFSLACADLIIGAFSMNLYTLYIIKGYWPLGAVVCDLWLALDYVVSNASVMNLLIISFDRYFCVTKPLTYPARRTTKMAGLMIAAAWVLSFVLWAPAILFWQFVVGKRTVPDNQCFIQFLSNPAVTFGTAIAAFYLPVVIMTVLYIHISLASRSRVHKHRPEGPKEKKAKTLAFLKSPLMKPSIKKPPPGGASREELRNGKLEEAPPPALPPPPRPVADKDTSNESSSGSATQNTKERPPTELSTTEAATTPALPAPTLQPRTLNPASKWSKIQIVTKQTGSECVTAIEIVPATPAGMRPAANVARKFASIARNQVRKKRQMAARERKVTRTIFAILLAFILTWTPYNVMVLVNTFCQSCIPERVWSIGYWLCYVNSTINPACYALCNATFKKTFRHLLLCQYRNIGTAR
The assay is described as follows: Agonist activity at muscarinic M4 receptor in wild type mouse hippocampal CA1 pyramidal neuron assessed as increase in carbachol-induced reduction in excitatory postsynaptic current at 5 uM by whole-cell electrophysiology relative to control. In kind it is functional, tissue-based. On the set-up: scale not given: the % may be the effect or the level left. Conditions: Hippocampus.

The target in assay [8] is T3, Muscarinic acetylcholine receptor M4 (Rattus norvegicus). The assay is described as follows: Agonist activity at muscarinic M4 receptor in Sprague-Dawley rat hippocampal CA1 pyramidal neuron assessed as excitatory postsynaptic current amplitude at 5 uM by whole-cell electrophysiology relative to control. In kind it is functional, tissue-based. To be noted: Hippocampus.

Assay [9] deals with T4, Muscarinic acetylcholine receptor M4 (Mus musculus). In words: Agonist activity at muscarinic M4 receptor in wild type mouse hippocampal CA1 pyramidal neuron assessed as excitatory postsynaptic current amplitude at 5 uM by whole-cell electrophysiology relative to control. In kind it is functional, tissue-based. To be noted: Hippocampus.
Assay [10] concerns the target T1, Muscarinic acetylcholine receptor M5 (Rattus norvegicus). The assay is described as follows: Allosteric activation of rat recombinant muscarinic M5 receptor expressed in CHO cells assessed as potentiation of acetylcholine-induced calcium mobilization at 10 uM after 1 hr by fluorescence assay. Type of assay: functional, cell-based.
The target is the same in assay [11]. The assay is described as follows: Antagonist activity at rat recombinant muscarinic M5 receptor expressed in CHO cells assessed as calcium mobilization at 10 uM after 1 hr by fluorescence assay. Type of assay: functional, cell-based.
Assay [12] deals with T3, Muscarinic acetylcholine receptor M4 (Rattus norvegicus). The assay is described as follows: Agonist activity at muscarinic M4 receptor in Sprague-Dawley rat hippocampal CA1 pyramidal neuron assessed as reduction of inhibitory postsynaptic current at 0.5 uM by whole-cell electrophysiology relative to control. Type of assay: functional, tissue-based. Conditions: Hippocampus.

Assay [13] has the same target. The assay is described as follows: Agonist activity at muscarinic M4 receptor in Sprague-Dawley rat hippocampal CA1 pyramidal neuron assessed as reduction of inhibitory postsynaptic current at 100 uM by whole-cell electrophysiology relative to control. In kind it is functional, tissue-based. To be noted: Hippocampus.

Chain of Muscarinic acetylcholine receptor M3 (Rattus norvegicus) (P08483 whole entry, looked up): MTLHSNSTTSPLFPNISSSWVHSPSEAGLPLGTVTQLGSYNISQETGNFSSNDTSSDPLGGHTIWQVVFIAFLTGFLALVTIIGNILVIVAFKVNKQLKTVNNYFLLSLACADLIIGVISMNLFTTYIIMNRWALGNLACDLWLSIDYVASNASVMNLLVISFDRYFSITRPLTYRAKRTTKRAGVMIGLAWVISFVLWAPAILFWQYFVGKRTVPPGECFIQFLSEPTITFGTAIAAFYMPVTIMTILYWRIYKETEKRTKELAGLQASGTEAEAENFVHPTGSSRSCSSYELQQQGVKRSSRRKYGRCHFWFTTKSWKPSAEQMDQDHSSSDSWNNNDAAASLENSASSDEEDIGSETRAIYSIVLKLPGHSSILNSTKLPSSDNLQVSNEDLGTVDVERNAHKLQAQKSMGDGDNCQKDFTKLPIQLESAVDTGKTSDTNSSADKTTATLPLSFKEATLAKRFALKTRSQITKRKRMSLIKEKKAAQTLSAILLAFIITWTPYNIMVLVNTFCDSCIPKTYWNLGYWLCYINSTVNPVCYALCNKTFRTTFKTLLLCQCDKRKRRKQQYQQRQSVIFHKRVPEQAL

In the case of `Cc1cc(C)c2c(N)c(C(=O)NCc3ccc(Cl)cc3)sc2n1`, the outcome in [1], in assay [2], in assay [3], in assay [5], in assay [6] and in [10] was inactive. For the same compound, in assay [11], the outcome was inactive. Besides, the Activity in [4] was determined as 36.9%; in [7], 39.8%; in [8], 108%; in assay [9] it was 102%. Further, the results for the inhibition in assay [12] and in assay [13] were 62.2% and 10.9%, respectively.

The term inhibition denotes the drop in the measured response relative to a control, in per cent.
